These results are taken from patent US20130345257A1, “COMPOSITION FOR LUPUS NEPHRITIS AND METHODS OF MAKING AND USING THE SAME” (The Regents of the University of California, priority 2012, published 2013).

Entries after “also recorded” stand apart in the source; their conditions may differ.

Data set [1] has as its system CD3/28-stimulated CD4^+CD25^− T cell proliferation. In words: T cell suppression assay and function of MDSC sorted from spleens of treated mice. It counts as cell-based, mouse. As to conditions: data not shown. As to the method: Single cell suspensions of splenocytes or kidney cells were prepared using cell strainers (Fisher), followed by red blood cell lysis. Kidney lymphocytes were separated from connective tissue by centrifugation (15 minutes at 400g) in 30% Percoll (GE Healthcare). CD4^+CD25^− cells from spleen and kidney were isolated using the CD4^+CD25^+ regulatory T cell isolation kit according to manufacturer's protocol (Miltenyi). CD11b+ cells were isolated using EasySep mouse CD11b positive selection kit (StemCell Technologies), surface stained for Ly6C and Ly6G prior to sorting myeloid-derived suppressor cells (MDSC) using FACSAria II. Populations were >95% pure by FACS analysis. CD4^+CD25^− cells were labelled with 5 µM CFSE and stimulated with Dynabeads mouse T-cell activator CD3/CD28 (Invitrogen). Stimulated CD4^+CD25^− cells (4×10^4) were co-cultured with monocytic-MDSC(CD11b^+Ly6C^+Ly6G^−) or granulocytic-MDSC(CD11b^+Ly6C^+Ly6G^+) at a 1:1 ratio. Proliferation of CD4^+ cells was assayed after 4 days of incubation at 37° C., 5% CO2 by flow cytometry.

In another data set the test system is MS patients. As to conditions: compared to placebo; cited from earlier work.
For data set [2], the system named is CD4+ regulatory T cells (CD4+ Foxp3+) in PBMC. In words: CD4+ Tregs within PBMC of treated mice. As to conditions: LAQ 1 or 25 mg/kg; compared to the other groups. It counts as in vivo, mouse. An excerpt: FIG. 7 depicts an exemplary embodiment: A) illustrates gating technique used to identify CD4+ regulatory T cells (CD4+ Tregs), which are shown as the dotted cloud inside the box insert and also labeled as CD4+ Foxp3+.

The test system of data set [3] is monocyte/macrophages (CD11b^+Ly6C^−Ly6G^−). As to the kind of experiment: Expression of activation/costimulatory molecules on splenic monocyte/macrophages of treated mice. It counts as cell-based, mouse. An excerpt: Spleens were removed 7 weeks after initiation of laquinimod treatment in PU^lo animals. Splenocytes were stimulated with TLR4 (LPS), 7 (imiquimod), or 9 (ODN) agonists, or PMA plus ionomycin, as described. FACS plots are representative of one experiment showing intracellular production of (A) IL-10 or (B) TNFα by monocyte/macrophages (CD11b+Ly6C−Ly6G−), and (C) IFNγ by CD4^+ T cells from laquinimod- or vehicle-treated mice. Graphs of IL-10, TNFα, and IFNγ production represent mean±SEM of cytokine production (n=6/gp, *p<0.05, **p<0.01, ***p<0.001 using two way ANOVA). […] Graphs depict mean±SD of mean fluorescence intensity (MFI) and are from three independent experiments with similar results. (n=4/gp, *p<0.05, **p<0.01, ***p<0.001 using t test).
Single-cell suspensions from spleen or kidneys were stained for extracellular markers for 20 min at 4° C. in PBS/1% FBS. Intracellular staining for Foxp3 and cytokines was performed using the Foxp3 Fixation/Permeabilization kit according to the manufacturer's protocol (eBioscience). Cells were acquired on a FACS LSR II (BD) and data was analyzed using Flowjo (Tree Star).

Data set [4] has as its system monocyte/macrophages (CD11b^+Ly6C^−Ly6G^−) and CD4^+ T cells. In words: Intracellular cytokines in splenocytes of treated mice after TLR agonist or PMA plus ionomycin stimulation. As to conditions: vs vehicle. It is filed as cell-based, mouse. As to the method: For intracellular cytokines, whole splenocytes were stimulated with a) LPS (1 μg/mL) (Sigma), imiquimod, a toll like receptor 7 (TLR7) agonist, or ODN, a TLR9 agonist (both at 10 μg/mL) in 2% FBS RPMI 1640 for 24 hours in the presence of monensin (BioLegend) for the last 12 hours; or b) phorbol 12-myristate 13-acetate (PMA, 50 ng/ml) plus ionomycin (500 ng/ml) in the presence of monensin for 5 hours. Monensin was used to prevent cytokine secretion and optimize intracellular staining Intracellular expression of cytokines in CD4^+ cells and macrophages (CD11b^+Ly6C^−Ly6G^−) was analyzed by intracellular flow cytometry. Single-cell suspensions from spleen or kidneys were stained for extracellular markers for 20 min at 4° C. in PBS/1% FBS. Intracellular staining for Foxp3 and cytokines was performed using the Foxp3 Fixation/Permeabilization kit according to the manufacturer's protocol (eBioscience). Cells were acquired on a FACS LSR II (BD) and data was analyzed using Flowjo (Tree Star).

A further data set deals with patients. As to conditions: dose of 2 g daily; dose-dependent; cited from earlier work.

As to `CCN(C(=O)c1c(O)c2c(Cl)cccc2n(C)c1=O)c1ccccc1` [LAQ, 5-chloro-N-ethyl-4-hydroxy-1-methyl-2-oxo-N-phenyl-1,2-dihydroquinoline-3-carboxamide], in data set [1], the “Production of arginase and reactive oxygen species (MDSC)” value is “not affected”. Further, the “New MRI lesions in the brains of patients with RRMS” value in the data set on MS patients is “significant reduction”. In addition, the “Percentage of CD4+ Tregs within PBMC” value in data set [2] was “significantly higher percent”. Moreover, in data set [3] (LPS 1 μg/mL), the “Expression of MHC 11, CD86 and CD80 on M/M after in vitro stimulation with LPS” value is “significantly lower”. For the same compound, the “Ex vivo expression of MHC 11, CD86 and CD40 on M/M” value in data set [3] (vs vehicle-treated animals, listed as laquinimod) is reported as “decreased expression; also recorded: down-regulated”. In addition, in data set [4] (splenic M/M after TLR agonist stimulation, PU^lo animals, 7 weeks of treatment), the “IL-10^+ M/M” value is recorded as “Significantly more”. In data set [4] (splenic M/M after TLR agonist stimulation, listed as laquinimod), the “M/M producing TNF-α” value is “unable to respond; also recorded: significantly fewer”. Also, in data set [4] (splenocytes, PMA plus ionomycin), the “CD4^+ T cells producing IFN-γ” value is recorded as “significantly fewer”.
With `COc1c(C)c2c(c(O)c1C/C=C(\C)CCC(=O)OCCN1CCOCC1)C(=O)OC2` [MMF, mycophenolate mofetil, reference compound], the “Patients with gastrointestinal side effects” value in the data set on patients is “up to 20%”.
